Read-outs that look alike come from different tables or passages of the source.
What was measured:
[1] = target: GSK3β (Homo sapiens, UniProt P49841); assay: GSK3β radiolabelled kinase assay (% residual activity, IC50, ATP competition); type: biochemical; details: for remaining activity at 10 µM: at 10 μM compound
[2] = system: NO production in LPS-activated BV-2 cells; assay: NO production assay (Griess) in LPS-activated BV-2 cells; type: cell-based, murine; details: Mus musculus, read-out: NO Inhibition IC50
Procedure: (§1) 3-(4,5-dimethylthiazol-2-yl)-2,5-diphenyl-tetrazolium bromide (MTT) assay was performed to evaluate the cytotoxicity of the samples to the microglia. BV2 cells at the density of 4 × 10^4 cells /well were seeded in the 96 well plate and incubated for 24 h. Seeded cells were pre-treated with different concentration of the samples, and LPS (100 ng/ml) activation was performed after 30 min of compound treatment. Treated plate were incubated for 24 h in the incubator and nitric oxide assay and cell viability assay was performed. Treated cell’s conditioned medium was used to evaluate the NO assay, and the attached cells were used to evaluate the cell viability assay. 50 µL of conditioned medium (CM) from treated cells were transferred to a new 96 well plate for NO assay. This CM was mixed with the equal volume of the mixture of Gries reagent ((1% sulfanilamide and 0.1% N-1-napthylethylenediamine dihydrochloride). NaNO2 was used as standard and the colorimetric change were evidenced by measuring its OD at 540 nm in a microplate reader. The cells in the plate were incubated for 1 h with MTT solution making it the final concentration of […]. Blue stained cells were incubated with 200 ul of DMSO and the solution get changed to purple/formazan color and it was observed by measuring the absorbance at 570 nm in a microplate reader.NG-mono-methyl-L-arginine (L-NMMA), a well-known nitric oxide synthase (NOS) inhibitor, was used as a positive control.

[3] = MTT cell viability assay; type: cell-based, murine; details: mouse, BV-2 microglia cells (LPS-activated), mean ± SD; for viability at 24 h, 1 µM: 1 μM compound; for viability at 24 h, 5 µM: 5 μM compound, % of LPS
Procedure: as §1

GSK3β, sequence (P49841 whole entry): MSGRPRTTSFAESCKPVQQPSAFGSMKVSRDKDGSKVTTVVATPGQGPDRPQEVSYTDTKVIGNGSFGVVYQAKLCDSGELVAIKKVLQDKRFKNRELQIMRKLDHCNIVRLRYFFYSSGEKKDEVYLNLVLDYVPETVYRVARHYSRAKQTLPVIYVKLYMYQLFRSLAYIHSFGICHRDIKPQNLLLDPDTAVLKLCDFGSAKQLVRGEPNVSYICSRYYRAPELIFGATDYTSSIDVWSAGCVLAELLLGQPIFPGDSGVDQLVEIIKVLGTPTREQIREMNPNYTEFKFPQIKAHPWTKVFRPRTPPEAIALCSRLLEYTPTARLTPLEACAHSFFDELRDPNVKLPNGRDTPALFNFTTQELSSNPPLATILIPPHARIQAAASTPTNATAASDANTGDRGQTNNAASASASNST

Compound	remaining activity at 10 µM [1]	IC50 [2]	viability at 24 h, 5 µM [3]	further results
O=C1C=CC2(C=C1)OCC(Cc1ccccc1)C(=O)N2c1ccccc1 (centres unmarked) [1a]	85.8 ± 16.1%	540 nM	74 ± 7%	viability at 24 h, 1 µM [3]: 95 ± 6.87%
O=C1C=CC2(C=C1)OCC(Cc1cn(-c3cccnc3)nn1)C(=O)N2c1ccccc1 (centres unmarked) [2b, 5-Phenyl-3-((1-(pyridin-3-yl)-1H-1,2,3-triazol-4-yl)methyl)-1-oxa-5-azaspiro[5.5]undeca-7,10-diene-4,9-dione]	87.5 ± 0.6%	870 ± 110 nM	120 ± 11%	–
O=C1C=CC2(C=C1)OCC(Cc1cn(-c3ccc(F)cc3)nn1)C(=O)N2c1ccccc1 (centres unmarked) [2c, 3-((1-(4-Fluorophenyl)-1H-1,2,3-triazol-4-yl)methyl)-5-phenyl-1-oxa-5-azaspiro[5.5]undeca-7,10-diene-4,9-dione]	84.8 ± 5.3%	780 ± 40 nM	109 ± 13%	–
O=C1C=CC2(C=C1)OCC(Cc1cn(-c3ccc(Br)cc3)nn1)C(=O)N2c1ccccc1 (centres unmarked) [2e, 3-((1-(4-Bromophenyl)-1H-1,2,3-triazol-4-yl)methyl)-5-phenyl-1-oxa-5-azaspiro[5.5]undeca-7,10-diene-4,9-dione]	69.6 ± 5.1%	670 ± 10 nM	93 ± 6%	viability at 24 h, 1 µM [3]: 106 ± 1.28%
O=C1C=CC2(C=C1)OCC(Cc1cn(-c3ccc(C(F)(F)F)cc3)nn1)C(=O)N2c1ccccc1 (centres unmarked) [2f, 5-Phenyl-3-((1-(4-(trifluoromethyl)phenyl)-1H-1,2,3-triazol-4-yl)methyl)-1-oxa-5-azaspiro[5.5]undeca-7,10-diene-4,9-dione]	96.3 ± 16.5%	770 ± 20 nM	115 ± 3%	–
N#Cc1cccc(-n2cc(CC3COC4(C=CC(=O)C=C4)N(c4ccccc4)C3=O)nn2)c1 (centres unmarked) [2g, 3-(4-((4,9-Dioxo-5-phenyl-1-oxa-5-azaspiro[5.5]undeca-7,10-dien-3-yl)methyl)-1H-1,2,3-triazol-1-yl)benzonitrile]	41.8 ± 0.9%	800 ± 130 nM	128 ± 17%	–
COc1ccc(-n2cc(CC3COC4(C=CC(=O)C=C4)N(c4ccccc4)C3=O)nn2)cc1 (centres unmarked) [2h, 3-((1-(4-Methoxyphenyl)-1H-1,2,3-triazol-4-yl)methyl)-5-phenyl-1-oxa-5-azaspiro[5.5]undeca-7,10-diene-4,9-dione]	112 ± 4.5%	760 ± 10 nM	124 ± 7%	–
CSc1ccc(-n2cc(CC3COC4(C=CC(=O)C=C4)N(c4ccccc4)C3=O)nn2)cc1 (centres unmarked) [2i, 3-((1-(4-(Methylthio)phenyl)-1H-1,2,3-triazol-4-yl)methyl)-5-phenyl-1-oxa-5-azaspiro[5.5]undeca-7,10-diene-4,9-dione]	66.9 ± 11.4%	980 ± 40 nM	121 ± 2%	–
O=C1C=CC2(C=C1)OCC(Cc1cn(-c3cccc(Cc4ccccc4)c3)nn1)C(=O)N2c1ccccc1 (centres unmarked) [2j, 3-((1-(3-Benzylphenyl)-1H-1,2,3-triazol-4-yl)methyl)-5-phenyl-1-oxa-5-azaspiro[5.5]undeca-7,10-diene-4,9-dione]	10.5 ± 2%	630 ± 10 nM	74 ± 4%	IC50 ([1]; ATP 1 µM, 10-dose, threefold dilution from 10 μM, read-out: IC50 of GSK3β activity): 2650 nM; IC50 ([1]; ATP 10 µM, 10-dose, threefold dilution from 10 μM, read-out: IC50 of GSK3β activity): 3530 nM; IC50 ([1]; ATP 50 µM, 10-dose, threefold dilution from 10 μM, read-out: IC50 of GSK3β activity): 3790 nM; IC50 ([1]; ATP 100 µM, 10-dose, threefold dilution from 10 μM, read-out: IC50 of GSK3β activity): 4040 nM; IC50 ([1]; ATP 200 µM, 10-dose, threefold dilution from 10 μM, read-out: IC50 of GSK3β activity): 3450 nM; dependence of GSK3β IC50 on ATP concentration ([1]; ATP 1, 10, 50, 100 and 200 µM): retained its IC50 activity regardless of the ATP concentration; viability at 24 h, 1 µM [3]: 107 ± 6.88%
O=C1C=CC2(C=C1)OCC(Cc1cn(-c3ccc(S(=O)(=O)C(F)(F)F)cc3)nn1)C(=O)N2c1ccccc1 (centres unmarked) [2k, 5-Phenyl-3-((1-(4-((trifluoromethyl)sulfonyl)phenyl)-1H-1,2,3-triazol-4-yl)methyl)-1-oxa-5-azaspiro[5.5]undeca-7,10-diene-4,9-dione]	35.1 ± 4.2%	770 ± 60 nM	71 ± 3%	–
CC(=O)Nc1ccc(-n2cc(CC3COC4(C=CC(=O)C=C4)N(c4ccccc4)C3=O)nn2)cc1 (centres unmarked) [2l, N-(4-(4-((4,9-Dioxo-5-phenyl-1-oxa-5-azaspiro[5.5]undeca-7,10-dien-3-yl)methyl)-1H-1,2,3-triazol-1-yl)phenyl)acetamide]	122 ± 2.3%	930 ± 60 nM	109 ± 16%	–
COc1cc(OC)cc(-n2cc(CC3COC4(C=CC(=O)C=C4)N(c4ccccc4)C3=O)nn2)c1 (centres unmarked) [2m, 3-((1-(3,5-B=Dimethoxyphenyl)-1H-1,2,3-triazol-4-yl)methyl)-5-phenyl-1-oxa-5-azaspiro[5.5]undeca-7,10-diene-4,9-dione]	114 ± 4.5%	1220 ± 300 nM	108 ± 5%	–
COc1cc(-n2cc(CC3COC4(C=CC(=O)C=C4)N(c4ccccc4)C3=O)nn2)ccc1F (centres unmarked) [2n, 3-((1-(4-fluoro-3-methoxyphenyl)-1H-1,2,3-triazol-4-yl)methyl)-5-phenyl-1-oxa-5-azaspiro[5.5]undeca-7,10-diene-4,9-dione]	85.6 ± 2%	850 ± 40 nM	102 ± 8%	–
O=C1C=CC2(C=C1)OCC(Cc1cn(-c3ccc4c(c3)OCO4)nn1)C(=O)N2c1ccccc1 (centres unmarked) [2o, 3-((1-(benzo[d][1,3]dioxol-5-yl)-1H-1,2,3-triazol-4-yl)methyl)-5-phenyl-1-oxa-5-azaspiro[5.5]undeca-7,10-diene-4,9-dione]	75 ± 0.7%	740 ± 80 nM	89 ± 8%	–
Cc1cc(=O)oc2cc(-n3cc(CC4COC5(C=CC(=O)C=C5)N(c5ccccc5)C4=O)nn3)ccc12 (centres unmarked) [2p, 3-((1-(4-methyl-2-oxo-2H-chromen-7-yl)-1H-1,2,3-triazol-4-yl)methyl)-5-phenyl-1-oxa-5-azaspiro[5.5]undeca-7,10-diene-4,9-dione]	35.7 ± 3.7%	850 ± 190 nM	97 ± 2%	IC50 ([1]; ATP 1 μM (Table 2), read-out: IC50 on GSK3β (converted)): 11400 nM
O=C1C=CC2(C=C1)OCC(Cc1cn(C34CC5CC(CC(C5)C3)C4)nn1)C(=O)N2c1ccccc1 [2q, 3-((1-((3R,5S)-adamantan-1-yl)-1H-1,2,3-triazol-4-yl)methyl)-5-phenyl-1-oxa-5-azaspiro[5.5]undeca-7,10-diene-4,9-dione]	71.6 ± 1.4%	780 ± 100 nM	87 ± 7%	–
O=C1C=CC2(C=C1)OCC(Cc1cn(Cc3ccccc3)nn1)C(=O)N2c1ccccc1 (centres unmarked) [2r, 3-((1-Benzyl-1H-1,2,3-triazol-4-yl)methyl)-5-phenyl-1-oxa-5-azaspiro[5.5]undeca-7,10-diene-4,9-dione]	61.7 ± 13.8%	650 ± 60 nM	75 ± 11%	viability at 24 h, 1 µM [3]: 101.3 ± 0.67%
[H]/N=C(/NC)NCCC[C@H](N)C(=O)O [L-NMMA, NG-mono-methyl-L-arginine, reference compound]	–	19600 ± 420 nM	105 ± 4%	viability at 24 h, 1 µM [3]: 101 ± 1.6%
C#CCC1COC2(C=CC(=O)C=C2)N(c2ccccc2)C1=O (centres unmarked) [compound 7, 5-Phenyl-3-(prop-2-yn-1-yl)-1-oxa-5-azaspiro[5.5]undeca-7,10-diene-4,9-dione]	55.7 ± 8.4%	680 ± 70 nM	100 ± 24%	–

From paper PMC7719162, “Positioning of an unprecedented spiro[5.5]undeca ring system into kinase inhibitor space” (Scientific Reports, 2020)
